Assay results: PubChem BioAssay AID2060498 (Molecular Pharmacology Branch, DTP, NCI, 2025)

System: 171881-019-R-J1-PDC tumor spheroids, viability
Assay: Anticancer human tumor 171881-019-R-J1-PDC patient-derived invasive breast carcinoma cell line growth inhibition [GQUAD]
Conditions: spheroids with HUVEC and MSC; for IC50: curve of first compound; for viability, T/C: stronger effect = lower value
Summary of the method: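 Viability of tumor cells grown as complex spheroids with endothelial and stromal cells, exposed to drug combinations. Top concentration at or near clinical Cmax (else 10 microM), diluted in half-log increments.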

[1] = second compound 0.0316 µM, first compound 0.0316 µM
[2] = second compound 0.0316 µM, first compound 0.1 µM
[3] = second compound 0.0316 µM, first compound 0.316 µM
[4] = second compound 0.0316 µM, first compound 1 µM
[5] = second compound 0.0316 µM, first compound 3.16 µM
[6] = second compound 0.0316 µM, first compound 10 µM
[7] = second compound 0.1 µM, first compound 0.0316 µM
[8] = second compound 0.1 µM, first compound 0.1 µM
[9] = second compound 0.1 µM, first compound 0.316 µM
[10] = second compound 0.1 µM, first compound 1 µM
[11] = second compound 0.1 µM, first compound 3.16 µM
[12] = second compound 0.1 µM, first compound 10 µM
[13] = second compound 0.316 µM, first compound 0.0316 µM
[14] = second compound 0.316 µM, first compound 0.1 µM
[15] = second compound 0.316 µM, first compound 0.316 µM
[16] = second compound 0.316 µM, first compound 1 µM
[17] = second compound 0.316 µM, first compound 3.16 µM
[18] = second compound 0.316 µM, first compound 10 µM
[19] = second compound 1 µM, first compound 0.0316 µM
[20] = second compound 1 µM, first compound 0.1 µM
[21] = second compound 1 µM, first compound 0.316 µM
[22] = second compound 1 µM, first compound 1 µM
[23] = second compound 1 µM, first compound 3.16 µM
[24] = second compound 1 µM, first compound 10 µM
[25] = second compound 3.16 µM, first compound 0.0316 µM
[26] = second compound 3.16 µM, first compound 0.1 µM
[27] = second compound 3.16 µM, first compound 0.316 µM
[28] = second compound 3.16 µM, first compound 1 µM
[29] = second compound 3.16 µM, first compound 3.16 µM
[30] = second compound 3.16 µM, first compound 10 µM
[31] = second compound 10 µM, first compound 0.0316 µM
[32] = second compound 10 µM, first compound 0.1 µM
[33] = second compound 10 µM, first compound 0.316 µM
[34] = second compound 10 µM, first compound 1 µM
[35] = second compound 10 µM, first compound 3.16 µM
[36] = second compound 10 µM, first compound 10 µM
[37] = second compound 0.0316 µM, first compound 0.000999 µM
[38] = second compound 0.0316 µM, first compound 0.00316 µM
[39] = second compound 0.0316 µM, first compound 0.00999 µM
[40] = second compound 0.0316 µM, first compound 0.0999 µM
[41] = second compound 0.1 µM, first compound 0.000999 µM
[42] = second compound 0.1 µM, first compound 0.00316 µM
[43] = second compound 0.1 µM, first compound 0.00999 µM
[44] = second compound 0.1 µM, first compound 0.0999 µM
[45] = second compound 0.316 µM, first compound 0.000999 µM
[46] = second compound 0.316 µM, first compound 0.00316 µM
[47] = second compound 0.316 µM, first compound 0.00999 µM
[48] = second compound 0.316 µM, first compound 0.0999 µM
[49] = second compound 1 µM, first compound 0.000999 µM
[50] = second compound 1 µM, first compound 0.00316 µM
[51] = second compound 1 µM, first compound 0.00999 µM
[52] = second compound 1 µM, first compound 0.0999 µM
[53] = second compound 3.16 µM, first compound 0.000999 µM
[54] = second compound 3.16 µM, first compound 0.00316 µM
[55] = second compound 3.16 µM, first compound 0.00999 µM
[56] = second compound 3.16 µM, first compound 0.0999 µM
[57] = second compound 10 µM, first compound 0.000999 µM
[58] = second compound 10 µM, first compound 0.00316 µM
[59] = second compound 10 µM, first compound 0.00999 µM
[60] = second compound 10 µM, first compound 0.0999 µM
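Wherever viability, T/C is given: 100% = DMSO vehicle control viability.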

C=CC(=O)N1CCN(c2nc(=O)n(-c3c(C)ccnc3C(C)C)c3nc(-c4c(O)cccc4F)c(F)cc23)C(C)C1 (stereo not given) + Cc1[nH]c2ccc(F)cc2c1-c1nc2c3cccnc3c3ncccc3c2[nH]1
IC50 (second compound 0.0316 µM): 9200 nM
IC50 (second compound 0.1 µM): 9550 nM
IC50 (second compound 0.316 µM): 8670 nM
IC50 (second compound 1 µM): 7980 nM
IC50 (second compound 3.16 µM): < 31.6 nM
IC50 (second compound 10 µM): < 31.6 nM
viability, T/C [1]: 92.1%
viability, T/C [2]: 91.5%
viability, T/C [3]: 84.8%
viability, T/C [4]: 109%
viability, T/C [5]: 90%
viability, T/C [6]: 46.5%
viability, T/C [7]: 83%
viability, T/C [8]: 92%
viability, T/C [9]: 101%
viability, T/C [10]: 112%
viability, T/C [11]: 87.9%
viability, T/C [12]: 48.4%
viability, T/C [13]: 100%
viability, T/C [14]: 94.2%
viability, T/C [15]: 91.4%
viability, T/C [16]: 104%
viability, T/C [17]: 92.8%
viability, T/C [18]: 43.7%
viability, T/C [19]: 84.9%
viability, T/C [20]: 80.1%
viability, T/C [21]: 76.2%
viability, T/C [22]: 79.5%
viability, T/C [23]: 85.4%
viability, T/C [24]: 42.4%
viability, T/C [25]: 21.9%
viability, T/C [26]: 16.6%
viability, T/C [27]: 26.8%
viability, T/C [28]: 21.9%
viability, T/C [29]: 24.5%
viability, T/C [30]: 16%
viability, T/C [31]: 38.5%
viability, T/C [32]: 41.4%
viability, T/C [33]: 41.6%
viability, T/C [34]: 47.6%
viability, T/C [35]: 44.9%
viability, T/C [36]: 34.1%

CC[C@@]1(O)C(=O)OCc2c1cc1n(c2=O)Cc2cc3c(CN(C)C)c(O)ccc3nc2-1 + Cc1[nH]c2ccc(F)cc2c1-c1nc2c3cccnc3c3ncccc3c2[nH]1
IC50 (second compound 0.0316 µM): 96.1 nM
IC50 (second compound 0.1 µM): 122 nM
IC50 (second compound 0.316 µM): 142 nM
IC50 (second compound 1 µM): 119 nM
IC50 (second compound 3.16 µM): < 0.999 nM
IC50 (second compound 10 µM): < 0.999 nM
viability, T/C [37]: 97%
viability, T/C [38]: 86.9%
viability, T/C [39]: 97.9%
viability, T/C [1]: 87.1%
viability, T/C [40]: 48.8%
viability, T/C [3]: 37.8%
viability, T/C [41]: 108%
viability, T/C [42]: 99.1%
viability, T/C [43]: 93.1%
viability, T/C [7]: 87.1%
viability, T/C [44]: 50.8%
viability, T/C [9]: 39.7%
viability, T/C [45]: 101%
viability, T/C [46]: 104%
viability, T/C [47]: 90.5%
viability, T/C [13]: 82.8%
viability, T/C [48]: 53.9%
viability, T/C [15]: 38.1%
viability, T/C [49]: 87.6%
viability, T/C [50]: 68%
viability, T/C [51]: 86%
viability, T/C [19]: 70.3%
viability, T/C [52]: 52.8%
viability, T/C [21]: 37.7%
viability, T/C [53]: 21.7%
viability, T/C [54]: 17.7%
viability, T/C [55]: 22.7%
viability, T/C [25]: 24.3%
viability, T/C [56]: 22.9%
viability, T/C [27]: 16.7%
viability, T/C [57]: 46.2%
viability, T/C [58]: 41.7%
viability, T/C [59]: 45.2%
viability, T/C [31]: 38.4%
viability, T/C [60]: 37.6%
viability, T/C [33]: 20.7%

CCc1c2c(nc3ccc(O)cc13)-c1cc3c(c(=O)n1C2)COC(=O)[C@]3(O)CC + Cc1[nH]c2ccc(F)cc2c1-c1nc2c3cccnc3c3ncccc3c2[nH]1
IC50 (second compound 0.0316 µM): 2.72 nM
IC50 (second compound 0.1 µM): 2.74 nM
IC50 (second compound 0.316 µM): 2.61 nM
IC50 (second compound 1 µM): 2.24 nM
IC50 (second compound 3.16 µM): < 0.999 nM
IC50 (second compound 10 µM): < 0.999 nM
viability, T/C [37]: 80.3%
viability, T/C [38]: 42.4%
viability, T/C [39]: 35.7%
viability, T/C [1]: 33.1%
viability, T/C [40]: 25.8%
viability, T/C [3]: 23.3%
viability, T/C [41]: 78.6%
viability, T/C [42]: 43.2%
viability, T/C [43]: 35.6%
viability, T/C [7]: 33.8%
viability, T/C [44]: 28.5%
viability, T/C [9]: 22.6%
viability, T/C [45]: 74.4%
viability, T/C [46]: 42.9%
viability, T/C [47]: 34.8%
viability, T/C [13]: 33.4%
viability, T/C [48]: 27%
viability, T/C [15]: 23.4%
viability, T/C [49]: 66.6%
viability, T/C [50]: 39.5%
viability, T/C [51]: 34.4%
viability, T/C [19]: 27.8%
viability, T/C [52]: 23.6%
viability, T/C [21]: 18.7%
viability, T/C [53]: 19.9%
viability, T/C [54]: 14.7%
viability, T/C [55]: 14.6%
viability, T/C [25]: 11%
viability, T/C [56]: 10.2%
viability, T/C [27]: 7.94%
viability, T/C [57]: 32%
viability, T/C [58]: 33.6%
viability, T/C [59]: 25.1%
viability, T/C [31]: 19.4%
viability, T/C [60]: 17%
viability, T/C [33]: 12.5%

COc1cc(C2c3cc4c(cc3C(OC3OC5COC(C)OC5C(O)C3O)C3COC(=O)C23)OCO4)cc(OC)c1O (stereo not given) + Cc1[nH]c2ccc(F)cc2c1-c1nc2c3cccnc3c3ncccc3c2[nH]1
IC50 (second compound 0.0316 µM): 946 nM
IC50 (second compound 0.1 µM): 765 nM
IC50 (second compound 0.316 µM): 826 nM
IC50 (second compound 1 µM): 862 nM
IC50 (second compound 3.16 µM): < 31.6 nM
IC50 (second compound 10 µM): < 31.6 nM
viability, T/C [1]: 93.2%
viability, T/C [2]: 88.2%
viability, T/C [3]: 74.5%
viability, T/C [4]: 46.9%
viability, T/C [5]: 33.3%
viability, T/C [6]: 22.6%
viability, T/C [7]: 97.9%
viability, T/C [8]: 98.4%
viability, T/C [9]: 77.7%
viability, T/C [10]: 40.8%
viability, T/C [11]: 33.3%
viability, T/C [12]: 24.2%
viability, T/C [13]: 98.7%
viability, T/C [14]: 92.2%
viability, T/C [15]: 72.8%
viability, T/C [16]: 43.8%
viability, T/C [17]: 33.3%
viability, T/C [18]: 23.1%
viability, T/C [19]: 80.1%
viability, T/C [20]: 87.6%
viability, T/C [21]: 66.3%
viability, T/C [22]: 45.2%
viability, T/C [23]: 37.7%
viability, T/C [24]: 23.4%
viability, T/C [25]: 28.9%
viability, T/C [26]: 18.7%
viability, T/C [27]: 22.6%
viability, T/C [28]: 18.7%
viability, T/C [29]: 17.7%
viability, T/C [30]: 11.5%
viability, T/C [31]: 40%
viability, T/C [32]: 50.6%
viability, T/C [33]: 35%
viability, T/C [34]: 33.5%
viability, T/C [35]: 26.5%
viability, T/C [36]: 15.8%

COc1cccc2c1C(=O)c1c(O)c3c(c(O)c1C2=O)CC(O)(C(=O)CO)CC3OC1CC(N)C(O)C(C)O1 (stereo not given) + Cc1[nH]c2ccc(F)cc2c1-c1nc2c3cccnc3c3ncccc3c2[nH]1
IC50 (second compound 0.0316 µM): 135 nM
IC50 (second compound 0.1 µM): 148 nM
IC50 (second compound 0.316 µM): 156 nM
IC50 (second compound 1 µM): 117 nM
IC50 (second compound 3.16 µM): < 31.6 nM
IC50 (second compound 10 µM): < 31.6 nM
viability, T/C [1]: 89.8%
viability, T/C [2]: 51.9%
viability, T/C [3]: 38.1%
viability, T/C [4]: 16.4%
viability, T/C [5]: 0.24%
viability, T/C [6]: 0.22%
viability, T/C [7]: 85.3%
viability, T/C [8]: 55.3%
viability, T/C [9]: 37.9%
viability, T/C [10]: 16.5%
viability, T/C [11]: 0.15%
viability, T/C [12]: 0.52%
viability, T/C [13]: 82.8%
viability, T/C [14]: 56.4%
viability, T/C [15]: 38.7%
viability, T/C [16]: 13.9%
viability, T/C [17]: 0.13%
viability, T/C [18]: 0.5%
viability, T/C [19]: 76.2%
viability, T/C [20]: 47%
viability, T/C [21]: 40.3%
viability, T/C [22]: 14.7%
viability, T/C [23]: 0.3%
viability, T/C [24]: 0.77%
viability, T/C [25]: 22.2%
viability, T/C [26]: 17.1%
viability, T/C [27]: 18.2%
viability, T/C [28]: 9.24%
viability, T/C [29]: 0.43%
viability, T/C [30]: 0.81%
viability, T/C [31]: 38%
viability, T/C [32]: 38.9%
viability, T/C [33]: 23.1%
viability, T/C [34]: 16.5%
viability, T/C [35]: 0.93%
viability, T/C [36]: 0.93%
